For ten molecules, inhibition results are on record in ChEMBL document CHEMBL3132769, “Fragment growing to retain or alter the selectivity of anchored kinase hinge-binding fragments” (Medchemcomm, 2014).

The target in experiment [1] is Platelet-derived growth factor receptor alpha (Homo sapiens) (UniProt P16234). In words: Inhibition of human PDGFR alpha catalytic domain expressed in baculovirus assessed as substrate phosphorylation using fluorescence-labelled peptides as substrate at 8 uM after 90 mins by microfluidic peptide phosphorylation assay.
Experiment [2] addresses Serine/threonine-protein kinase PAK 2 (Homo sapiens) (UniProt Q13177). Description: Inhibition of human truncated PAK2 expressed in Escherichia coli cell assessed as substrate phosphorylation using fluorescence-labelled peptides as substrate at 420 uM after 90 mins by microfluidic peptide phosphorylation assay.
The target of experiment [3] is Protein kinase C beta type (Homo sapiens) (UniProt P05771). Description: Inhibition of human truncated PKC beta1 expressed in baculovirus assessed as substrate phosphorylation using fluorescence-labelled peptides as substrate at 0.1 uM after 90 mins by microfluidic peptide phosphorylation assay.
For experiment [4], the target named is T1, Aurora kinase C (Homo sapiens) (UniProt Q9UQB9).
T1 sequence (whole entry): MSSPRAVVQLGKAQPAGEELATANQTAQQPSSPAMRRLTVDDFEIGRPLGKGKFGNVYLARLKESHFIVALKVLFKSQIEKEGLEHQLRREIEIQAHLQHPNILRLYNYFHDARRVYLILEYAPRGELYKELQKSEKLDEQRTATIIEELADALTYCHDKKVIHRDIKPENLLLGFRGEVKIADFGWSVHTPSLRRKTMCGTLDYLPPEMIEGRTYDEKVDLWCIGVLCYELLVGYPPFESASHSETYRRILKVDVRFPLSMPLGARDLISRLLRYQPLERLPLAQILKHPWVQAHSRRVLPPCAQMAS
In words: Inhibition of human full length AurC expressed in baculovirus assessed as substrate phosphorylation using fluorescence-labelled peptides as substrate at 0.2 uM after 90 mins by microfluidic peptide phosphorylation assay.

The target in experiment [5] is Serine/threonine-protein kinase MARK1 (Homo sapiens) (UniProt Q9P0L2). Description: Inhibition of human full length MARK1 expressed in baculovirus assessed as substrate phosphorylation using fluorescence-labelled peptides as substrate at 0.2 uM after 90 mins by microfluidic peptide phosphorylation assay.
The target of experiment [6] is Calcium/calmodulin-dependent protein kinase type II subunit beta (Homo sapiens) (UniProt Q13554). Description: Inhibition of human CAMK2 beta catalytic domain expressed in baculovirus assessed as substrate phosphorylation using fluorescence-labelled peptides as substrate at 0.2 uM after 90 mins by microfluidic peptide phosphorylation assay.
Experiment [7] concerns the target Receptor-type tyrosine-protein kinase FLT3 (Homo sapiens) (UniProt P36888). In words: Inhibition of human FLT3 catalytic domain expressed in baculovirus assessed as substrate phosphorylation using fluorescence-labelled peptides as substrate at 0.2 uM after 90 mins by microfluidic peptide phosphorylation assay.
Experiment [8] concerns the target Protein kinase C theta type (Homo sapiens) (UniProt Q04759). In words: Inhibition of human truncated PKC theta expressed in baculovirus assessed as substrate phosphorylation using fluorescence-labelled peptides as substrate at 9 uM after 90 mins by microfluidic peptide phosphorylation assay.
Experiment [9] concerns the target T2, MAP kinase-activated protein kinase 5 (Homo sapiens) (UniProt Q8IW41).
T2 sequence (whole entry): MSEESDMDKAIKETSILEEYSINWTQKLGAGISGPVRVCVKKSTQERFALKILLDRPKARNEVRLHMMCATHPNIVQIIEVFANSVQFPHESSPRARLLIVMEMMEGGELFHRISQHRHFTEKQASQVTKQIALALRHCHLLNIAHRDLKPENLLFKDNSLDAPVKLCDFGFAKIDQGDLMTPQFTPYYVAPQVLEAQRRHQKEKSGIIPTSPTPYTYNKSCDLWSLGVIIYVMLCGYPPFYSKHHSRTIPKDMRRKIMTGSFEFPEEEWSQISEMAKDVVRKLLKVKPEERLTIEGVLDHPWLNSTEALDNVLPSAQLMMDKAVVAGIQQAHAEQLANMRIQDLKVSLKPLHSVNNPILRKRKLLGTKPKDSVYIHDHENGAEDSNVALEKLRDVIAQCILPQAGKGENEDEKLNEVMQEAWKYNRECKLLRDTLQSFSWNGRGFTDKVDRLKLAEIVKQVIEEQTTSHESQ
Description: Inhibition of human full length PRAK expressed in baculovirus assessed as substrate phosphorylation using fluorescence-labelled peptides as substrate at 70 uM after 90 mins by microfluidic peptide phosphorylation assay.

The target of experiment [10] is Serine/threonine-protein kinase pim-1 (Homo sapiens) (UniProt P11309). Description: Inhibition of human full length PIM1 expressed in baculovirus assessed as substrate phosphorylation using fluorescence-labelled peptides as substrate at 70 uM after 90 mins by microfluidic peptide phosphorylation assay.
Experiment [11] deals with Hepatocyte growth factor receptor (Homo sapiens) (UniProt P08581). Description: Inhibition of human MET cytoplasmic domain expressed in baculovirus assessed as substrate phosphorylation using fluorescence-labelled peptides as substrate at 70 uM after 90 mins by microfluidic peptide phosphorylation assay.
Experiment [12] has as its target Serine/threonine-protein kinase MARK2 (Homo sapiens) (UniProt Q7KZI7). Description: Inhibition of human full length MARK2 expressed in baculovirus assessed as substrate phosphorylation using fluorescence-labelled peptides as substrate at 2 uM after 90 mins by microfluidic peptide phosphorylation assay.
For experiment [13] the target is unchanged. In words: Inhibition of human full length MARK2 expressed in baculovirus assessed as substrate phosphorylation using fluorescence-labelled peptides as substrate at 95 uM after 90 mins by microfluidic peptide phosphorylation assay.
Experiment [14] deals with Glycogen synthase kinase-3 beta (Homo sapiens) (UniProt P49841). Description: Inhibition of human full length GSK-3 beta expressed in baculovirus assessed as substrate phosphorylation using fluorescence-labelled peptides as substrate at 1000 uM after 90 mins by microfluidic peptide phosphorylation assay.
The target in experiment [15] is MAP kinase p38 (Homo sapiens) (UniProt O15264+Q15759+Q16539+P53778). In words: Inhibition of human full length p38 beta2 expressed in Escherichia coli cell assessed as substrate phosphorylation using fluorescence-labelled peptides as substrate at 1000 uM after 90 mins by microfluidic peptide phosphorylation assay.
In experiment [16] the target is T3, Mitogen-activated protein kinase 13 (Homo sapiens) (UniProt O15264).
T3 sequence (whole entry): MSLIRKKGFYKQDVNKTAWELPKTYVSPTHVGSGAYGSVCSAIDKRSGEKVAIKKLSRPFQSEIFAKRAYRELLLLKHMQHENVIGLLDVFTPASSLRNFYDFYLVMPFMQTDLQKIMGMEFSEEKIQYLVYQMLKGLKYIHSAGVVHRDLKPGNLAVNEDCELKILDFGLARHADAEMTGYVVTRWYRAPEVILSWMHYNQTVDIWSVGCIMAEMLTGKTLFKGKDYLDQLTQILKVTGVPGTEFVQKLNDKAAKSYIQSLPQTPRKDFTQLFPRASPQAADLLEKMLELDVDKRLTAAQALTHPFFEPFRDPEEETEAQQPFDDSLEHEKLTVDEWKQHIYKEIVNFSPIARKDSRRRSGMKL
Description: Inhibition of human full length p38 delta expressed in Escherichia coli cell assessed as substrate phosphorylation using fluorescence-labelled peptides as substrate at 1000 uM after 90 mins by microfluidic peptide phosphorylation assay.

The target in experiment [17] is MAP/microtubule affinity-regulating kinase 3 (Homo sapiens) (UniProt P27448). Description: Inhibition of human full length c-TAK1 expressed in Escherichia coli cell assessed as substrate phosphorylation using fluorescence-labelled peptides as substrate at […] after 90 mins by microfluidic peptide phosphorylation assay.
Sequence of MAP/microtubule affinity-regulating kinase 3 (Homo sapiens) (P27448 whole entry, looked up): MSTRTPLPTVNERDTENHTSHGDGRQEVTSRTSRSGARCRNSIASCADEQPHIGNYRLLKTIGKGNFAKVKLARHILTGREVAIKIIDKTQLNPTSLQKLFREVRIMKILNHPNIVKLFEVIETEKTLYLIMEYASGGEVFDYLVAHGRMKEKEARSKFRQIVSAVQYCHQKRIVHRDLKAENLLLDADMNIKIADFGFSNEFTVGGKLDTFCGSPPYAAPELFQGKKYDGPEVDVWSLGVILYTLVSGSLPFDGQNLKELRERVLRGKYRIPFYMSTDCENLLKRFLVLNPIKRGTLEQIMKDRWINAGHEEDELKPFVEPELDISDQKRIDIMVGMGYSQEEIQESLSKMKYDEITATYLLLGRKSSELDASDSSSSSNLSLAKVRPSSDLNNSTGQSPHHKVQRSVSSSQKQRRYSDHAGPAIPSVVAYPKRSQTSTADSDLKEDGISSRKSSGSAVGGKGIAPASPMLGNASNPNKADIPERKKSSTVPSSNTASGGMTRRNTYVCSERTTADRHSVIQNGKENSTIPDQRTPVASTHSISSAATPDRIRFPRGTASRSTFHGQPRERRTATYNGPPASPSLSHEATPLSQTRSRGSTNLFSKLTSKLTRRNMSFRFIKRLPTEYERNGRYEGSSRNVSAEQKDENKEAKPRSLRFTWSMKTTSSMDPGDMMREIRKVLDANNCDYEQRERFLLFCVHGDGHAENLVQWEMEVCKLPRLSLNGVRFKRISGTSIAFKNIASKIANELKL

Sequence of Serine/threonine-protein kinase MARK2 (Homo sapiens) (Q7KZI7 whole entry): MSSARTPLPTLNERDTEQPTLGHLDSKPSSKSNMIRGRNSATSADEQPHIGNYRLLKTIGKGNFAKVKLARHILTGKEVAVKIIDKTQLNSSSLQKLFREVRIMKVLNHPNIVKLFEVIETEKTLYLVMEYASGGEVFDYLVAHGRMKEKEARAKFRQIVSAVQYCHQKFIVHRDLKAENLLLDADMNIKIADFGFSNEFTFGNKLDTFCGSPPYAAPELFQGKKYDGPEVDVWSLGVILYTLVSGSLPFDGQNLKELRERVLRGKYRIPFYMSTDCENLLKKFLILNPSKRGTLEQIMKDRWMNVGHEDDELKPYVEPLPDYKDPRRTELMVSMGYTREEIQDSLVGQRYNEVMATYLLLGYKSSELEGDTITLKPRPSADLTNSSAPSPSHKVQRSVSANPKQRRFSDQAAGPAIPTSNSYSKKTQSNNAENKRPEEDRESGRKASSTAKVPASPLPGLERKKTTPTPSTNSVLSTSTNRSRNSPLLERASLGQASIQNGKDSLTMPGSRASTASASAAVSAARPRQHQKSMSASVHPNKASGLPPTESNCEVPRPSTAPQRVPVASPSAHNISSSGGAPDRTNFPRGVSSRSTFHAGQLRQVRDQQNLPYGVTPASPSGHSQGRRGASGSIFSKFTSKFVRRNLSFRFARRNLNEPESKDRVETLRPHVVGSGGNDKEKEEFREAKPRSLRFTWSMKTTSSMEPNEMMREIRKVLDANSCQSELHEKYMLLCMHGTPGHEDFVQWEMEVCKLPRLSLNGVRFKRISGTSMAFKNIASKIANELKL
Sequence of Protein kinase C beta type (Homo sapiens) (P05771 2-671 limits assumed): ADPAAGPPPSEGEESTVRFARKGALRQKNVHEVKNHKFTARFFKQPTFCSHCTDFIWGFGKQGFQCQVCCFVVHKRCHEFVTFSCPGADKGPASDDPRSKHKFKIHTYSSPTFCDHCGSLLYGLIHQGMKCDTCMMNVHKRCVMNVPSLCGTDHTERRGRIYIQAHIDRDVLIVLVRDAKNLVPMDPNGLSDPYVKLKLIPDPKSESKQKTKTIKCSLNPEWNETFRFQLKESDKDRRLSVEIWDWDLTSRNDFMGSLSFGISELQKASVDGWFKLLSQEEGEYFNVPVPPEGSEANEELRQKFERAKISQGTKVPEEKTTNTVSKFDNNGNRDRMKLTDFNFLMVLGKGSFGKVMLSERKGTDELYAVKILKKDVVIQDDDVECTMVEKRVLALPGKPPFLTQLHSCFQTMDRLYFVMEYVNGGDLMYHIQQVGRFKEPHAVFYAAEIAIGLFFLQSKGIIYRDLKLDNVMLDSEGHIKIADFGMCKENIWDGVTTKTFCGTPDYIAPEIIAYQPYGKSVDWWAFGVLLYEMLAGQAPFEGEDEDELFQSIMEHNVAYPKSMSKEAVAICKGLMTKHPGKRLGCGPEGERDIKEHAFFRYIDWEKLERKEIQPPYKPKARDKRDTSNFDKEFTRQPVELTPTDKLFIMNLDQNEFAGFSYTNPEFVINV
Sequence of Protein kinase C theta type (Homo sapiens) (Q04759 whole entry, looked up, the tested form may be a part): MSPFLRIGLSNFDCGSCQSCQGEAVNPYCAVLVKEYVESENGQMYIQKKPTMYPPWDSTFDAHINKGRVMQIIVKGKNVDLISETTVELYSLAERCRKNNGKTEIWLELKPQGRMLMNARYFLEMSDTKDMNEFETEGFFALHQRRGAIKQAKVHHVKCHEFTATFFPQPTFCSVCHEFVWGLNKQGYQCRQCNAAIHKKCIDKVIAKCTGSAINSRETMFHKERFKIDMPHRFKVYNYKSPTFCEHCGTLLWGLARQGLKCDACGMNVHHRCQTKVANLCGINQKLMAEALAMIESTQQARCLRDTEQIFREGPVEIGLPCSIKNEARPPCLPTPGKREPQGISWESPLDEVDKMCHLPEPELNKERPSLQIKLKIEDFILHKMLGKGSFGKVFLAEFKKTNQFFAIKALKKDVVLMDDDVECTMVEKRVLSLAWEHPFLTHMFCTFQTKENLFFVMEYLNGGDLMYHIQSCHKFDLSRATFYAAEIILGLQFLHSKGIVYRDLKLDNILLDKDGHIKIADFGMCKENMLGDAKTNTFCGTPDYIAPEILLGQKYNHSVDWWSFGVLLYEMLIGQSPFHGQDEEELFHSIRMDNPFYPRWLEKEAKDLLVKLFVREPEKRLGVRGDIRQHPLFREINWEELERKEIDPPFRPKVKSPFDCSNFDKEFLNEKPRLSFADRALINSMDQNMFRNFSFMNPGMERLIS
Sequence of Serine/threonine-protein kinase pim-1 (Homo sapiens) (P11309 whole entry, looked up, the tested form may be a part): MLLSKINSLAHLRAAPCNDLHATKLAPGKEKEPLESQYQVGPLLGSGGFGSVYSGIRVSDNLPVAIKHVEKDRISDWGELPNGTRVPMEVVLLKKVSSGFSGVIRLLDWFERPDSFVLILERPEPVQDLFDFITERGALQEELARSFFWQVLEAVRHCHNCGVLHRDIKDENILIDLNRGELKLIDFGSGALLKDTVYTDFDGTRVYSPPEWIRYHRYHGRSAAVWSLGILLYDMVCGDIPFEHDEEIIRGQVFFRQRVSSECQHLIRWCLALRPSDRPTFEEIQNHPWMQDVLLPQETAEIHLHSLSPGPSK
Sequence of Hepatocyte growth factor receptor (Homo sapiens) (P08581 whole entry, the tested form may be a part): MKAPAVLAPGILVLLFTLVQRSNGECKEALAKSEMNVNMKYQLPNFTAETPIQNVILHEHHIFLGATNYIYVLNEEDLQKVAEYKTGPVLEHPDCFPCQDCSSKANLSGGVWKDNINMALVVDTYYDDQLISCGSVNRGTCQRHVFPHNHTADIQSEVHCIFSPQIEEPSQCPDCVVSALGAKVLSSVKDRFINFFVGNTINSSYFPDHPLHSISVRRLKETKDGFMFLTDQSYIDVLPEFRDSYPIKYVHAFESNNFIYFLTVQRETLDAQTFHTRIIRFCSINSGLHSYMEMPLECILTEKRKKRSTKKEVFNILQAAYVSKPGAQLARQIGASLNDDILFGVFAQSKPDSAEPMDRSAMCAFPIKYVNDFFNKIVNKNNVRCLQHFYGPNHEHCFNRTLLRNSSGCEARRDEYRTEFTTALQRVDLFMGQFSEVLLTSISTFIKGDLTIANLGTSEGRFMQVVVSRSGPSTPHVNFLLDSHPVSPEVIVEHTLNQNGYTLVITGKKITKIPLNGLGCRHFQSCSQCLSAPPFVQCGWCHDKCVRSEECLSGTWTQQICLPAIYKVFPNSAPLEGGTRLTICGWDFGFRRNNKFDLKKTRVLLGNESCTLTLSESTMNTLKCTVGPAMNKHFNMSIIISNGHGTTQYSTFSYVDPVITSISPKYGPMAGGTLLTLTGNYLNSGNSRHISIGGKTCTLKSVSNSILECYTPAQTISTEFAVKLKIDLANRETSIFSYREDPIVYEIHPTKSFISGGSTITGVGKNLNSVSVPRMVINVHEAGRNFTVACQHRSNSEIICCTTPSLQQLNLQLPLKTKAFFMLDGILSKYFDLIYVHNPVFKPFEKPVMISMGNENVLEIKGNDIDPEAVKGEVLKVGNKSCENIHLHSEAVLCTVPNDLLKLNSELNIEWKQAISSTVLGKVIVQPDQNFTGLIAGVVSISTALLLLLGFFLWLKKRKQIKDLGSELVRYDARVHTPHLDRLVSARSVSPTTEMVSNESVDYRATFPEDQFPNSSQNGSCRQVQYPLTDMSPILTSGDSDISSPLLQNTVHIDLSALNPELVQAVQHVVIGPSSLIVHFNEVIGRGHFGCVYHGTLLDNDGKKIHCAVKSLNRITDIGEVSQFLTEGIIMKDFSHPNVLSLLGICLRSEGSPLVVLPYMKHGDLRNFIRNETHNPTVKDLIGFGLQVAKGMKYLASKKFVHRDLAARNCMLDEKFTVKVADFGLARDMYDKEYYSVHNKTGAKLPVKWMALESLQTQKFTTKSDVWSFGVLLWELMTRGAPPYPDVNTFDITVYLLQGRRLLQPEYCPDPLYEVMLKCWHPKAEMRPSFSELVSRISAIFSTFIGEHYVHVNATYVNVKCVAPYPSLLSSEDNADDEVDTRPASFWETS
Sequence of Glycogen synthase kinase-3 beta (Homo sapiens) (P49841 whole entry, looked up): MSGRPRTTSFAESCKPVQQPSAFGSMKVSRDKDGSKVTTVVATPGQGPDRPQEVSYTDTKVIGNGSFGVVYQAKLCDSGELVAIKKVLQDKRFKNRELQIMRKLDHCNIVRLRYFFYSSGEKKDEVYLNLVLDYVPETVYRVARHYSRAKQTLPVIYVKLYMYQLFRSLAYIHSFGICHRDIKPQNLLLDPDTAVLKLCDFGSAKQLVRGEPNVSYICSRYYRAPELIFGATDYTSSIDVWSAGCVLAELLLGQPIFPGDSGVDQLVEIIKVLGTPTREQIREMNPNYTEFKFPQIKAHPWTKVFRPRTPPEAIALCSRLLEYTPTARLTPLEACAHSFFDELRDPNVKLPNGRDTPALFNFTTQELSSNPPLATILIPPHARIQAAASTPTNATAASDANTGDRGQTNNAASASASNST

Usually inhibition stands for the change of the read-out against control, counted positive when it falls. Turning to `NCC1CCN(c2ncnc3[nH]ccc23)CC1`, the inhibition in experiment [1] was determined as 0%.
For `c1nc(N2CCOCC2)c2nc[nH]c2n1`, the inhibition in experiment [2] came out at 67.5%.
For `C[C@H](CN(C)C)Oc1nc(Nc2cc3cccc(Cl)c3cn2)cnc1C#N`, the inhibition in experiment [3] stood at 3%.
In the case of `Clc1ccc(C2(c3ccc(-c4ncnc5[nH]cnc45)cc3)CCNCC2)cc1`, the inhibition in [4] stood at 73.5%; in [5], 51%; in [6], 11.5%; in [7], 7.5%.
On to `NCC1CN(c2ncnc3[nH]c4cnccc4c23)CCO1` (configuration not stated), for which the inhibition in experiment [8] worked out at 52.5%.
In the case of `CNCc1ccc(-c2ncnc3[nH]cnc23)cc1`, the values for the inhibition in [9], in experiment [10] and in experiment [11] were 20.5%, 26% and 0%, respectively.
Regarding `NC1CCN(c2ncnc3[nH]ccc23)CC1`, the inhibition in [12] was found to be 0%.
For the molecule `NCCc1ccc(-c2ncnc3[nH]cnc23)cc1`, in [13], the inhibition was 67%.
As for `c1cnc2[nH]ccc2c1`, the results for the inhibition in experiment [14], in experiment [15] and in [16] were 32%, 0% and 51%, respectively.
On to `COC(=O)c1cnc(Nc2cnc(C#N)cn2)cc1NCC1CCNCC1`, for which the inhibition in experiment [17] came to 0.5%.
